Experimental data taken from ChEMBL document CHEMBL1201862, “PubChem BioAssay data set” (2004).
Calls of active or inactive are those of the source.

Assays:
INS1 = assay: INS-1E survival protection against cytokine death – cell-based, luminescence, retest, dose response (AID 449756); assay type: functional; details: Rattus norvegicus;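 note: cell death triggered by IL-1 beta plus TNF-alpha plus IFN-gamma mixture; protective hits raise ATP signal compared with cytokine alone wells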
[1] = target: T1, Sentrin-specific protease 6 (Homo sapiens, UniProt Q9GZR1); assay type: functional;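 note: Luminescence-based dose-response confirmatory assay of SENP6 inhibition, following up an ultra-high-throughput screen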
T1 sequence (Q9GZR1 whole entry): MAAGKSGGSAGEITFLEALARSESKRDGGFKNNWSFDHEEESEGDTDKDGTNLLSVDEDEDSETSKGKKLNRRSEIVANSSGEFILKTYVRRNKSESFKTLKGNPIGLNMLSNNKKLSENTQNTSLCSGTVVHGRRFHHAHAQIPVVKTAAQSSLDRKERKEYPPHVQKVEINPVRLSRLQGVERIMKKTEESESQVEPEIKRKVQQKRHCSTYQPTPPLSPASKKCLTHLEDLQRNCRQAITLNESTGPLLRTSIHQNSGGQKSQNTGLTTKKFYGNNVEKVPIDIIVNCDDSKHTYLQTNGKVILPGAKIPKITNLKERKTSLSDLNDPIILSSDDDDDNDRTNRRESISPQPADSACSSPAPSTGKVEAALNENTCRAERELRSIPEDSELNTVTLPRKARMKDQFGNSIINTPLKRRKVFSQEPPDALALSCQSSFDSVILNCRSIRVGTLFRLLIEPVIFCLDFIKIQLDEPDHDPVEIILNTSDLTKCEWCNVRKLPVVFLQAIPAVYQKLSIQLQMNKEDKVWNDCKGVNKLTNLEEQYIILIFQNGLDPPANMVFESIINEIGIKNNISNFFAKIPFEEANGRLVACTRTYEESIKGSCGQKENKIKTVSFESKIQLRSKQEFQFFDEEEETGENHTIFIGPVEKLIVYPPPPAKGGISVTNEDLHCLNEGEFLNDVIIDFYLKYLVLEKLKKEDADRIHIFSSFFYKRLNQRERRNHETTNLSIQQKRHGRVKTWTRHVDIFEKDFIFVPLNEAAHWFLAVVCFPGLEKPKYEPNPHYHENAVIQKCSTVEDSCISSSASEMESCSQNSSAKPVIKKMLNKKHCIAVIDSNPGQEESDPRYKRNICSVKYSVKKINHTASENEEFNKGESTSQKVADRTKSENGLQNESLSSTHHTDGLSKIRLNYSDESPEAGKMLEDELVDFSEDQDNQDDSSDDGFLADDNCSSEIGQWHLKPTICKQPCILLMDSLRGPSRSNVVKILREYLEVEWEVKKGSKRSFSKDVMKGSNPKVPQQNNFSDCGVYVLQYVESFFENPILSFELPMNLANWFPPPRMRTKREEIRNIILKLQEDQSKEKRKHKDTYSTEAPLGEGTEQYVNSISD

[2] = target: T2, Sentrin-specific protease 7 (Homo sapiens, UniProt Q9BQF6); assay type: functional;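 note: Luminescence-based dose-response confirmation of ultra-high-throughput screening hits, measuring inhibition of SENP7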
T2 sequence (Q9BQF6 whole entry): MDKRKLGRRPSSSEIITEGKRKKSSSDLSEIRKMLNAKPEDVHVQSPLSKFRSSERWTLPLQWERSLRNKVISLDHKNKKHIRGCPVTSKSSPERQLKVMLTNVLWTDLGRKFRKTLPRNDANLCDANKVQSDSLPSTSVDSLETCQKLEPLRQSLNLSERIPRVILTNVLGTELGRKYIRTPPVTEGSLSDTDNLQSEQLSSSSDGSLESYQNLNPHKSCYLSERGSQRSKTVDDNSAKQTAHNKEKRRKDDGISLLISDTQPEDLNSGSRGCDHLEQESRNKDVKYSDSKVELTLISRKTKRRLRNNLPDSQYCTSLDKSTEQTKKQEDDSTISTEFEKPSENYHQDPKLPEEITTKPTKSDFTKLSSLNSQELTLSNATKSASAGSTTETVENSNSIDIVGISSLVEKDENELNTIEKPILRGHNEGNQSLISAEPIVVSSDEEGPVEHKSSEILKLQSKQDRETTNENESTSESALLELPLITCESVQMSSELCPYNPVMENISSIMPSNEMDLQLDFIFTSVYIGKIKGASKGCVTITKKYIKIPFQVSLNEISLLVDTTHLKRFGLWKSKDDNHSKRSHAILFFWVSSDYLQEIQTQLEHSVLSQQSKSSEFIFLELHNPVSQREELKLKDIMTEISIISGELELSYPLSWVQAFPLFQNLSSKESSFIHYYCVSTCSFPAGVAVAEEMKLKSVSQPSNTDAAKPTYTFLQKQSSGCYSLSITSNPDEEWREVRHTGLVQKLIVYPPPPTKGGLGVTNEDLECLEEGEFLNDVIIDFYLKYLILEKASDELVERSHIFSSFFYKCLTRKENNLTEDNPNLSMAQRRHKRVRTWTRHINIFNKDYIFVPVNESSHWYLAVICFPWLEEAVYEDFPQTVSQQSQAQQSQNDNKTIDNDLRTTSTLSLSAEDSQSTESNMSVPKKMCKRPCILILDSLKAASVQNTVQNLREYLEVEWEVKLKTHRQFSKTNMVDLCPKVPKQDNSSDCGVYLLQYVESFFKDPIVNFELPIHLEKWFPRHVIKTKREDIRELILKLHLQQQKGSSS

Paired box protein Pax-8 = Paired box protein Pax-8 (Homo sapiens, UniProt Q06710); assay: PAX8 transcriptional activity inhibition in RMG-I – RMG-I cells, luciferase, cherry-pick, dose response (AID 687027); assay type: functional, cell-based;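 note: luciferase reporter driven by Pax8 target thyroperoxidase promoter measured by SteadyGlo luminescence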
Chain of Paired box protein Pax-8 (Q06710 whole entry): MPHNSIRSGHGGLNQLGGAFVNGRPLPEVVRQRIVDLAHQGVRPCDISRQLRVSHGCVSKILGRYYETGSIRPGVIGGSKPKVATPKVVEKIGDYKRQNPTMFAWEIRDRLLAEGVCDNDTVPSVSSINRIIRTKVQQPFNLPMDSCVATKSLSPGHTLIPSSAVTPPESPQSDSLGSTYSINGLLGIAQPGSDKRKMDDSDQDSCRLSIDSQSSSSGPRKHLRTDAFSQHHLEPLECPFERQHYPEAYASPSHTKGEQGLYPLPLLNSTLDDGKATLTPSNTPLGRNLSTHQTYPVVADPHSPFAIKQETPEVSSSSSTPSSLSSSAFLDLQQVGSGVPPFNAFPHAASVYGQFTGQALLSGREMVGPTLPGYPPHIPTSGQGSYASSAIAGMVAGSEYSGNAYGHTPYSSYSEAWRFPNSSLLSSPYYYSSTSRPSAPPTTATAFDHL

Caspase-3 = target: T3, Caspase-3 (Homo sapiens, UniProt P42574); assay type: functional;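 note: Dose-response selectivity test against caspase-3 for candidate inhibitors of sentrin-specific proteases (SENPs)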
T3 sequence (P42574 whole entry): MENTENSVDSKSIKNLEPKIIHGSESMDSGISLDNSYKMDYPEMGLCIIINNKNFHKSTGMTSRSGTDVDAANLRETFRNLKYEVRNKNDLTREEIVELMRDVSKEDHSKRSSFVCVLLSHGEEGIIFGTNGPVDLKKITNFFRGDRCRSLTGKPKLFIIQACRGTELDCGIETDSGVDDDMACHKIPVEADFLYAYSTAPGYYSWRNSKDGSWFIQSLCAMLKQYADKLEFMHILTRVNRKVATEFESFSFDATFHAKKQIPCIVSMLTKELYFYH

[3] = target: T4, Sentrin-specific protease 8 (Homo sapiens, UniProt Q96LD8); assay type: functional;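 note: luminescence read-out of SENP8 inhibition, dose-response confirmation following an ultra-high-throughput screen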
T4 sequence (Q96LD8 whole entry): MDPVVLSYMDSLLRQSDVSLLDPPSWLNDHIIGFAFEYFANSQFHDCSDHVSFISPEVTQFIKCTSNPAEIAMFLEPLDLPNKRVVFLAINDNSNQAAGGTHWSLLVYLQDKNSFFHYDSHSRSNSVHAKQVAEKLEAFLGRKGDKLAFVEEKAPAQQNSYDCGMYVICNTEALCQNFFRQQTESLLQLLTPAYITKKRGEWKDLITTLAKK

Streptococcus = assay: GAS UMAA2166 growth inhibition – luminescence, BacTiterGlo, counter-screen for streptokinase expression inhibitor project, dose response (AID 1915); assay type: functional, organism-based;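 note: potency for reduction of bacterial viability or growth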
[4] = target: Tyrosyl-DNA phosphodiesterase 2 (Homo sapiens, UniProt O95551); assay: potency against TDP2 phosphodiesterase activity – biochemical, epi absorbance, IC50, dose response (AID 743297)
Chain of Tyrosyl-DNA phosphodiesterase 2 (O95551 whole entry): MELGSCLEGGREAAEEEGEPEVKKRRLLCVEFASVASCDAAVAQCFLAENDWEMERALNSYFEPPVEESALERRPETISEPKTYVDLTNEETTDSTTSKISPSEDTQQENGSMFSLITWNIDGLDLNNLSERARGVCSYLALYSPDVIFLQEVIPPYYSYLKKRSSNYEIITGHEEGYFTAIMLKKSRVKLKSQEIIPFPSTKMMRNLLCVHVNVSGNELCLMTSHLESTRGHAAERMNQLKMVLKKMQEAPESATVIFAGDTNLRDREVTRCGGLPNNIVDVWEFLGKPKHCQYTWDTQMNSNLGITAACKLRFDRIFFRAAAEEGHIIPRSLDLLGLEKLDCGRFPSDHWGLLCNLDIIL

CCCCCCCCCCOC(=O)Cn1c(COc2cccc(OC)c2)[n+](C)c2ccccc21
active: AC50 (INS1) 2.94 µM

COc1cc(OC)c(NC2=CC(=O)C(=O)c3ccccc32)cc1Cl
active: IC50 [1] 2.25 µM | IC50 [2] 4.56 µM | AC50 (INS1) 3.57 µM | AC50 (Paired box protein Pax-8) 3.4 µM | IC50 (Caspase-3) 12.2 µM | IC50 [3] 3.62 µM

CCc1ccc(S(=O)(=O)/N=C2\C=C(Nc3cccc(C(=O)O)c3)C(=O)c3ccccc32)cc1
active: EC50 (Streptococcus) 1.9 µM | IC50 [4] 2.2 µM

COc1cc2c(cc1OC)-c1c(OC)c(OC)cc3c1C(C2)N(C)CC3 (centres undefined)
active: IC50 [1] 1.86 µM | IC50 [2] 4.63 µM | IC50 (Caspase-3) 0.907 µM | IC50 [3] 5.47 µM | IC50 [4] 4.6 µM
